{
  "source": "paper PMC5679667",
  "about": "(PLoS ONE, 2017)",
  "biological_target": "T1, ecAT3.10 (extracellular ATeam3.10) (Bacillus sp. PS3, UniProt P07678)",
  "T1 construct": "gene atpC; ATeam3.10 (epsilon subunit between CFP and YFP) with N-terminal IgK leader and C-terminal PDGFR transmembrane anchor; on surface of Neuro2A cells",
  "T1 sequence (P07678 whole entry, the tested form may be a part)": "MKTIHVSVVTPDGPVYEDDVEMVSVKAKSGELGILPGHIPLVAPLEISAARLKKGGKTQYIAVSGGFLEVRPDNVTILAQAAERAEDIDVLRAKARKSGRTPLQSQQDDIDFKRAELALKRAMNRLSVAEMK",
  "assay": "live-cell FRET/CFP ratio imaging",
  "type": "cell-based",
  "conditions": "Neuro2A cells, continuous perfusion, pH 7.3, room temperature; printed error probably a misprint",
  "data": [
    {"smiles": "Nc1ncnc2c1ncn2[C@@H]1O[C@H](COP(=O)(O)OP(=O)(O)O)[C@@H](O)[C@H]1O", "note": "[ADP]", "values": [
      {"measurement": "fold increase in ratio signal at 100 μM", "value": "1.026 ± 1.005"}
    ]}
  ]
}
